Assay [1] addresses T1, TNKS2 (Homo sapiens, UniProt Q9H2K2).
T1 sequence (Q9H2K2 1-1166): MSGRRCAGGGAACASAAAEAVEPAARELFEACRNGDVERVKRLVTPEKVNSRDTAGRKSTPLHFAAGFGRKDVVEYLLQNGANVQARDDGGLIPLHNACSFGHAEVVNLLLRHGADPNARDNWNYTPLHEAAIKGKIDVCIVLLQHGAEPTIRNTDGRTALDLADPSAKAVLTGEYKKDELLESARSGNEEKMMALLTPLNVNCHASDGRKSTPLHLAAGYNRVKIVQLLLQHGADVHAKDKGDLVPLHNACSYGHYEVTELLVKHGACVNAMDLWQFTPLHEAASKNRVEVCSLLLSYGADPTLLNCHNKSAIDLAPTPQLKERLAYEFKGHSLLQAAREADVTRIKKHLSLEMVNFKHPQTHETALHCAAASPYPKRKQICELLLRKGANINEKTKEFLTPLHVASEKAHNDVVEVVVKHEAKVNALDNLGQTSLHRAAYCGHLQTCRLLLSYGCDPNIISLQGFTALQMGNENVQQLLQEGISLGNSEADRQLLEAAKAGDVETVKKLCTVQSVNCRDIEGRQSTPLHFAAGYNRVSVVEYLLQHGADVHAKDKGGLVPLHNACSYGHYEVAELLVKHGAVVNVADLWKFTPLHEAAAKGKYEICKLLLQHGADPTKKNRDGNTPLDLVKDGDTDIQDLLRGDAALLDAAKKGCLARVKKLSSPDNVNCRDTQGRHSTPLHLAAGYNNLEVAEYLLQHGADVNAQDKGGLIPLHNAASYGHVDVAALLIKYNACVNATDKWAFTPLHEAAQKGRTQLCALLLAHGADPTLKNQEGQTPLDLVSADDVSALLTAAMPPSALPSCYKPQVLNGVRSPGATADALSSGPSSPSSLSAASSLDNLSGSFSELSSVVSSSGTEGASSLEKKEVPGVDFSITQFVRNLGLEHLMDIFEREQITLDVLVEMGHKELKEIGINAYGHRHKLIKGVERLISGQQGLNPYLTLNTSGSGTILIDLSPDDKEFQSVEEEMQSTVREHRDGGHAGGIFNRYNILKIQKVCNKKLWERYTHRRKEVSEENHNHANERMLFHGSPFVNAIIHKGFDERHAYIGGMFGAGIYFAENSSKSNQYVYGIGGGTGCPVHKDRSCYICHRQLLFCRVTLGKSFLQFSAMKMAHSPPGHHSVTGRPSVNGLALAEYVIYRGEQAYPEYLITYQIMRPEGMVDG
Description: Modified TNKS2 Assay 2 (auto-parsylation, [3H]-NAD+ SPA). The assay is classed as biochemical. As to conditions: 6 nM TNKS2, 96 well.

Assay [2] relates to wildtype Wnt signaling cascade. As to the kind of experiment: HEK293 TOP Assay (Super TopFlash luciferase reporter, Wnt-3a stimulated). The class given is cell-based. The settings on record: Homo sapiens, HEK293, 16 h, HEK293 TOP reporter cell line, Wnt-3a at EC50, 16 hours incubation, compound dilution series 50 μM to 15 nM. The method in brief: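 HEK293 cells stably carrying Super TopFlash (TOP) or FOP reporter, stimulated with recombinant human Wnt-3a (2500–5 ng/ml, two-fold steps). Both lines incubated in parallel with compound from 50 μM to 15 nM (3.16-fold) in CAFTY buffer pH 7.4 with 2 mM Ca2+ and 0.01% BSA; selectivity judged TOP vs FOP.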
(In general: Reporter assays use an easily measured gene product as a stand-in for the process of interest.)

With `Cc1nc(C(=O)Nc2ccc(NC(=O)c3ccc(F)cc3Cl)cc2)c(C(=O)NCCN2CCCCC2)[nH]1` [Example 67, N^4-{4-[(2-chloro-4-fluorobenzoyl)amino]phenyl}-2-methyl-N^5-[2-(piperidin-1-yl)ethyl]-1H-imidazole-4,5-dicarboxamide], the results for the IC50 in assay [1] and in assay [2] were 30 nM and 70 nM, respectively.
Consider `CCc1nc(C(=O)Nc2ccc(NC(=O)c3ccc(F)cc3Cl)cc2)c(C(=O)NC)[nH]1` [Example 68, N^4-{4-[(2-chloro-4-fluorobenzoyl)amino]phenyl}-2-ethyl-N^5-methyl-1H-imidazole-4,5-dicarboxamide], for which the 50% inhibitory concentration (IC50) (commonly the concentration that inhibits the measured activity by half) in assay [1] was greater than 10000 nM; in assay [2] it was 2150 nM.
The corresponding values for `COC(=O)c1nc[nH]c1C(=O)Nc1ccc(NC(=O)c2ccc(F)cc2Cl)c(F)c1` [Example 71, methyl 5-({4-[(2-chloro-4-fluorobenzoyl)amino]-3-fluorophenyl}carbamoyl)-1H-imidazole-4-carboxylate] are 110 nM and 340 nM.
The corresponding values for `CN(C)CCNC(=O)c1nc[nH]c1C(=O)Nc1ccc(NC(=O)c2ccc(F)cc2Cl)c(F)c1` [Example 73, N^5-{4-[(2-chloro-4-fluorobenzoyl)amino]-3-fluorophenyl}-N^4-[2-(dimethylamino)ethyl]-1H-imidazole-4,5-dicarboxamide] are 30 nM and 360 nM.
The corresponding values for `CN(C)CCNC(=O)c1nc[nH]c1C(=O)Nc1ccc(NC(=O)c2ccc(F)cc2)c(F)c1` [Example 77, N^4-[2-(dimethylamino)ethyl]-N^5-{3-fluoro-4-[(4-fluorobenzoyl)amino]phenyl}-1H-imidazole-4,5-dicarboxamide] are 1800 nM and 4400 nM.
Take `O=C(Nc1ccc(NC(=O)c2[nH]cnc2C(=O)NCCN2CCCCC2)cc1F)c1ccc(F)cc1` [Example 78, N^5-{3-fluoro-4-[(4-fluorobenzoyl)amino]phenyl}-N^4-[2-(piperidin-1-yl)ethyl]-1H-imidazole-4,5-dicarboxamide]: the IC50 was greater than 10000 nM in assay [1] and 280 nM in assay [2].
The corresponding values for `CNC(=O)c1nc[nH]c1C(=O)Nc1ccc(NC(=O)c2ccccc2Cl)c(F)c1` [Example 80, N^5-{4-[(2-chlorobenzoyl)amino]-3-fluorophenyl}-N^4-methyl-1H-imidazole-4,5-dicarboxamide] are 700 nM and 820 nM.
Consider `CN(C)CCNC(=O)c1nc[nH]c1C(=O)Nc1ccc(NC(=O)c2ccccc2Cl)c(F)c1` [Example 81, N^5-{4-[(2-chlorobenzoyl)amino]-3-fluorophenyl}-N^4-[2-(dimethylamino)ethyl]-1H-imidazole-4,5-dicarboxamide], for which the IC50 in assay [1] worked out at 160 nM; in assay [2] it was 660 nM.
Take `Cc1cc(NC(=O)c2[nH]cnc2C(=O)NCCN(C)C)ccc1NC(=O)c1ccc(F)cc1Cl` [Example 84, N^5-{4-[(2-chloro-4-fluorobenzoyl)amino]-3-methylphenyl}-N^4-[2-(dimethylamino)ethyl]-1H-imidazole-4,5-dicarboxamide]: the results for the IC50 in assay [1] and in assay [2] were 260 nM and 620 nM, respectively.
Take `Cc1cc(NC(=O)c2[nH]cnc2C(=O)NCCN2CCCCC2)ccc1NC(=O)c1ccc(F)cc1Cl` [Example 85, N^5-{4-[(2-chloro-4-fluorobenzoyl)amino]-3-methylphenyl}-N^4-[2-(piperidin-1-yl)ethyl]-1H-imidazole-4,5-dicarboxamide]: the IC50 in assay [1] was 10 nM; in assay [2], 160 nM.
The corresponding values for `CCNC(=O)c1nc[nH]c1C(=O)Nc1ccc(NC(=O)c2cccc(OC)c2Cl)cc1` [Example 260, N^5-{4-[(2-chloro-3-methoxybenzoyl)amino]phenyl}-N^4-ethyl-1H-imidazole-4,5-dicarboxamide] are 6200 nM and 2100 nM.
The corresponding values for `CCNC(=O)c1nc[nH]c1C(=O)Nc1ccc(NC(=O)c2ncccc2Cl)cc1` [Example 261, N^5-(4-{[(3-chloropyridin-2-yl)carbonyl]amino}phenyl)-N^4-ethyl-1H-imidazole-4,5-dicarboxamide] are 210 nM and 22200 nM.
